Reference: patent US6063780A, “Method of treating a tumor” (priority 1998, dated 2000)
Where two headings read alike, the source gives them in different places.

Key:
MV-522 Human Lung Tumor [1] = test: Oxaliplatin, Paclitaxel and Tirapazamine vs MV-522 Human Lung Tumor Xenograft (Example 4); settings: for % Tumor Growth Inhibition (TGI) / Actual Tumor Wt. (Mean ± SEM) / Weight Change (Day 6) / # of Toxic Deaths / Mice with Complete Shrinkage / Mice with partial Tumor Shrinkage: oxaliplatin 15 mg/kg (MTD), paclitaxel 20 mg/kg, tirapazamine 70 mg/kg, i.p., qdx1; for % Tumor Growth Inhibition (TGI): in the animals without shrinkage; for Actual Tumor Wt. (Mean ± SEM) / Weight Change (Day 6): n=8; for # of Toxic Deaths / Mice with Complete Shrinkage / Mice with partial Tumor Shrinkage: number of 8 mice; for antitumor efficacy (in words): oxaliplatin experiment
Description: (§1) Nude mice weighing approximately 20 g were implanted s.c. by trocar with fragments of MV-522 human lung carcinomas harvested from s.c. growing tumors in nude mice hosts. When tumors were approximately 5 mm×5 mm in size (usually ten days after inoculation), the animals were pair-matched into treatment and control groups. Each group contained 8 tumored mice, each of which was ear-tagged and followed individually throughout the experiment. Tirapazamine was administered three hours prior to oxaliplatin, carboplatin and paclitaxel. The route and schedule for all drugs was i.p., qdxl.
(§2) Mice were weighed twice weekly, and tumor measurements were taken by calipers twice weekly, starting on Day 1. These tumor measurements were converted to mg tumor weight by a well-known formula, L×W^2 /2. The experiment was terminated when control tumors reached a size of 1 gram. Upon termination, all mice were weighed, sacrificed, and their tumors excised. Tumors were weighed, and the mean tumor weight per group was calculated.
(§3) With these agents, the final weight of a given tumor was subtracted from its own weight at the start of treatment on Day 1. This difference divided by the initial tumor weight is the % shrinkage. A mean % tumor shrinkage can be calculated from data from the mice in a group that experienced tumor regressions. If the MV-522 tumor completely disappeared in a mouse, this was considered a complete regression or complete tumor shrinkage.
Paclitaxel and tirapazamine were given at doses of 20 mg/kg and 70 mg/kg respectively (i.p.; qd×1).

[2] = cited from earlier work
MV-522 Human Lung Tumor [3] = test: Carboplatin, Paclitaxel and Tirapazamine vs MV-522 Human Lung Tumor Xenograft (confirming study, Example 3); settings: for Final Tumor Wt. (Mean ± SEM) / Weight Change (Day 6): n=8; for antitumor efficacy (in words): carboplatin experiment / general statement; for Mean % Tumor Shrinkage: mice with partial shrinkage
Description: as §1, §2, §3
Paclitaxel and tirapazamine were administered i.p. as a single bolus at doses of 20 mg/kg (2/3 MTD) and 70 mg/kg (MTD) respectively. Carboplatin was given as a single i.p. bolus at doses of 100 mg/kg (MTD) or 50 mg/kg (1/2 MTD).

[4] = tested on: mouse SCCVII and other tumors; settings: multiple injections in conjunction with fractionated irradiation; cited from earlier work
[5] = tested on: FSaIIC Murine Fibrosarcoma; settings: cited from earlier work
[6] = carboplatin 50 mg/kg (1/2 MTD), paclitaxel 20 mg/kg, tirapazamine 70 mg/kg where combined, i.p., qdx1, in the animals without shrinkage
[7] = carboplatin 50 mg/kg (1/2 MTD), paclitaxel 20 mg/kg, tirapazamine 70 mg/kg where combined, i.p., qdx1
[8] = carboplatin 50 mg/kg (1/2 MTD), paclitaxel 20 mg/kg, tirapazamine 70 mg/kg where combined, i.p., qdx1, number of 8 mice
[9] = carboplatin 100 mg/kg (MTD), paclitaxel 20 mg/kg, tirapazamine 70 mg/kg where combined, i.p., qdx1, in the animals without shrinkage
[10] = carboplatin 100 mg/kg (MTD), paclitaxel 20 mg/kg, tirapazamine 70 mg/kg where combined, i.p., qdx1
[11] = carboplatin 100 mg/kg (MTD), paclitaxel 20 mg/kg, tirapazamine 70 mg/kg where combined, i.p., qdx1, number of 8 mice
[12] = groups without carboplatin, paclitaxel 20 mg/kg, tirapazamine 70 mg/kg, i.p., qdx1
[13] = groups without carboplatin, paclitaxel 20 mg/kg, tirapazamine 70 mg/kg, i.p., qdx1, number of 8 mice

O=C1[O][Pt]2([NH][C@@H]3CCCC[C@H]3[NH]2)[O]C1=O (relative stereo) [Oxaliplatin, cis-oxalato(trans-1-1,2-cyclohexanediamine) platinum (II)]
% Tumor Growth Inhibition (TGI) (MV-522 Human Lung Tumor [1]): 8.2% | Actual Tumor Wt. (Mean ± SEM) (MV-522 Human Lung Tumor [1]): 731.5 ± 62.6 mg | Weight Change (Day 6) (MV-522 Human Lung Tumor [1]): +5.2% | # of Toxic Deaths (MV-522 Human Lung Tumor [1]): 0 | Mice with Complete Shrinkage (MV-522 Human Lung Tumor [1]): 0 | Mice with partial Tumor Shrinkage (MV-522 Human Lung Tumor [1]): 0 | antitumor efficacy (in words) (MV-522 Human Lung Tumor [1]): not active

N.N.O=C([O-])C1(C(=O)[O-])CCC1.[Pt+2] [Carboplatin, platinum, diammine [1,1-cyclobutane-dicarboxylato(2)-0,0']-, (SP-4-2)]
pH of a 1% solution ([2]; 1% solution): 5-7 | rate of aquation ([2]; compared with cisplatin): occurs at a slower rate than in the case of cisplatin | solubility in water ([2]; water): approximately 14 mg/mL | % Tumor Growth Inhibition (TGI) (MV-522 Human Lung Tumor [3]; [6]): 22.5% | Final Tumor Wt. (Mean ± SEM) (MV-522 Human Lung Tumor [3]; [7]): 698.1 ± 160.5 mg | Weight Change (Day 6) (MV-522 Human Lung Tumor [3]; [7]): -1.7% | # of Toxic Deaths (MV-522 Human Lung Tumor [3]; [8]): 0 | Mice with Complete Shrinkage (MV-522 Human Lung Tumor [3]; [8]): 0 | Mice with partial Tumor Shrinkage (MV-522 Human Lung Tumor [3]; [8]): 0 | % Tumor Growth Inhibition (TGI) (MV-522 Human Lung Tumor [3]; [9]): 39.7% | % Tumor Growth Inhibition (TGI) (MV-522 Human Lung Tumor [3]; carboplatin 100 mg/kg (MTD), paclitaxel 20 mg/kg, tirapazamine 70 mg/kg where combined, i.p., qdx1, in the animals without shrinkage, listed as carboplatin): approximately 40% | Final Tumor Wt. (Mean ± SEM) (MV-522 Human Lung Tumor [3]; [10]): 556.5 ± 129.8 mg | Weight Change (Day 6) (MV-522 Human Lung Tumor [3]; [10]): -1.5% | # of Toxic Deaths (MV-522 Human Lung Tumor [3]; [11]): 0 | Mice with Complete Shrinkage (MV-522 Human Lung Tumor [3]; [11]): 0 | Mice with partial Tumor Shrinkage (MV-522 Human Lung Tumor [3]; [11]): 0

CC(=O)OC1C(=O)C2(C)C(O)CC3OCC3(OC(C)=O)C2C(OC(=O)c2ccccc2)C2(O)CC(OC(=O)C(O)C(NC(=O)c3ccccc3)c3ccccc3)C(C)=C1C2(C)C [Paclitaxel, 5β,20-Epoxy-1,2α,4,7β,10β,13α-hexahydroxytax-11-en-9-one 4,10-diacetate 2-benzoate 13-ester with (2R, 3S)-N-benzoyl-3-phenylisoserine]
% Tumor Growth Inhibition (TGI) (MV-522 Human Lung Tumor [1]): 30.9% | Actual Tumor Wt. (Mean ± SEM) (MV-522 Human Lung Tumor [1]): 570.5 mg | Weight Change (Day 6) (MV-522 Human Lung Tumor [1]): +0.9% | # of Toxic Deaths (MV-522 Human Lung Tumor [1]): 1 | Mice with Complete Shrinkage (MV-522 Human Lung Tumor [1]): 0 | Mice with partial Tumor Shrinkage (MV-522 Human Lung Tumor [1]): 0 | solubility in water (in words) ([2]; water): insoluble in water | Final Tumor Wt. (Mean ± SEM) (MV-522 Human Lung Tumor [3]; [12]): 552.9 ± 68.6 mg | Weight Change (Day 6) (MV-522 Human Lung Tumor [3]; [12]): +0.4% | # of Toxic Deaths (MV-522 Human Lung Tumor [3]; [13]): 1 | Mice with Complete Shrinkage (MV-522 Human Lung Tumor [3]; [13]): 0 | Mice with partial Tumor Shrinkage (MV-522 Human Lung Tumor [3]; [13]): 0 | # of Toxic Deaths (MV-522 Human Lung Tumor [3]; groups without carboplatin, paclitaxel 20 mg/kg, tirapazamine 70 mg/kg, i.p., qdx1, number of 8 mice, listed as paclitaxel): one toxic death

Nc1n[n+]([O-])c2ccccc2[n+]1[O-] [Tirapazamine, 3-amino-1,2,4-benzotriazine 1,4-dioxide]
tumor cell kill with fractionated irradiation [4]: kills hypoxic cells, increases tumor cell kill while sparing normal tissue | dose enhancement / cytotoxic effect in combination ([5]; given just before single-dose cyclophosphamide, carmustine or melphalan): marked dose enhancement leading to synergistic cytotoxic effects on tumor cells | dose enhancement / cytotoxic effect in combination ([5]; given just prior to single-dose cisplatin): additive effect, except at the highest dose level of cisplatin | % Tumor Growth Inhibition (TGI) (MV-522 Human Lung Tumor [1]): 2.5% | Actual Tumor Wt. (Mean ± SEM) (MV-522 Human Lung Tumor [1]): 769.1 ± 73.0 mg | Weight Change (Day 6) (MV-522 Human Lung Tumor [1]): -6.9% | # of Toxic Deaths (MV-522 Human Lung Tumor [1]): 0 | Mice with Complete Shrinkage (MV-522 Human Lung Tumor [1]): 0 | Mice with partial Tumor Shrinkage (MV-522 Human Lung Tumor [1]): 0 | antitumor efficacy (in words) (MV-522 Human Lung Tumor [1]): not active | antitumor efficacy (in words) (MV-522 Human Lung Tumor [3]): not active as a single agent | % Tumor Growth Inhibition (TGI) (MV-522 Human Lung Tumor [3]; [12]): 5.7% | Final Tumor Wt. (Mean ± SEM) (MV-522 Human Lung Tumor [3]; [12]): 835.3 ± 111.2 mg | Weight Change (Day 6) (MV-522 Human Lung Tumor [3]; [12]): -1.7% | # of Toxic Deaths (MV-522 Human Lung Tumor [3]; [13]): 0 | Mice with Complete Shrinkage (MV-522 Human Lung Tumor [3]; ip, 70 mg/kg): 0 | Mice with partial Tumor Shrinkage (MV-522 Human Lung Tumor [3]; ip, 70 mg/kg): 0

Paclitaxel + Carboplatin
% Tumor Growth Inhibition (TGI) (MV-522 Human Lung Tumor [3]; [6]): 49.8% | Final Tumor Wt. (Mean ± SEM) (MV-522 Human Lung Tumor [3]; [7]): 474.0 ± 93.5 mg | Weight Change (Day 6) (MV-522 Human Lung Tumor [3]; [7]): +1.7% | # of Toxic Deaths (MV-522 Human Lung Tumor [3]; [8]): 0 | Mice with Complete Shrinkage (MV-522 Human Lung Tumor [3]; [8]): 0 | Mice with partial Tumor Shrinkage (MV-522 Human Lung Tumor [3]; [8]): 0 | % Tumor Growth Inhibition (TGI) (MV-522 Human Lung Tumor [3]; [9]): 68.8% | Mean % Tumor Shrinkage (MV-522 Human Lung Tumor [3]; [10]): 53.0% | Mean % Tumor Shrinkage (MV-522 Human Lung Tumor [3]; carboplatin 100 mg/kg (MTD), paclitaxel 20 mg/kg, tirapazamine 70 mg/kg where combined, i.p., qdx1, listed as paclitaxel-high dose carboplatin): 53% | Final Tumor Wt. (Mean ± SEM) (MV-522 Human Lung Tumor [3]; [10]): 241.4 ± 70.3 mg | Weight Change (Day 6) (MV-522 Human Lung Tumor [3]; [10]): -1.3% | # of Toxic Deaths (MV-522 Human Lung Tumor [3]; [11]): 0 | Mice with Complete Shrinkage (MV-522 Human Lung Tumor [3]; [11]): 0 | Mice with partial Tumor Shrinkage (MV-522 Human Lung Tumor [3]; [11]): 2 | Mice with partial Tumor Shrinkage (MV-522 Human Lung Tumor [3]; carboplatin 100 mg/kg (MTD), paclitaxel 20 mg/kg, tirapazamine 70 mg/kg where combined, i.p., qdx1, number of 8 mice, listed as paclitaxel-high dose carboplatin): two | antitumor efficacy (in words) (MV-522 Human Lung Tumor [3]): even more effective
